In patent US11925450B2, “Methods and apparatus for guiding medical care based on detected gastric function” (Gravitas Medical, Inc., priority 2011, dated 2024):
Where two headings read alike, the source gives them in different places. One block for each compound: values may come before it.

Legend:
[1] = cited from earlier work; for Volume of HCl neutralized by 30 ml: 30 ml (sodium citrate 0.3M)
gastric juice pH [2] = settings: 30 ml of 0.3 M, pretreatment in elective cesarean section patients; cited from earlier work
gastric juice pH [3] = settings: cited from earlier work
[4] = cited from earlier work
[5] = in vivo; cited from earlier work
[6] = approximately 5 ml of 8.4% solution
Description: In particular, 5 mls of this 8.4% solution can be administered into a patient's stomach at least 15 minutes prior to baseline measurement of gastric juice pH and administration of stimulant, such as pentagastrin.

SMILES: O=C([O-])CC(O)(CC(=O)[O-])C(=O)[O-].[Na+].[Na+].[Na+] [Sodium Citrate, sodium citrate]
Volume of HCl neutralized by 30 ml ([1]; HCl pH 0.8): 140 mL
Volume of HCl neutralized by 30 ml ([1]; HCl pH 1 (1.0)): 255 mL
Volume of HCl neutralized by 30 ml ([1]; HCl pH 1 (1.0), listed as sodium citrate): up to 255 ml
Volume of HCl neutralized by 30 ml ([1]; HCl pH 1.5): 750 mL
pH (value in parentheses after the antacid's name) ([1]; presumably pH of the antacid itself, not explained): Sodium Citrate (8.5)
change in gastric juice pH (gastric juice pH [2]): significant increase in gastric juice pH
gastric juice pH, mean after administration (gastric juice pH [3]; 50 ml of 0.3 M into the stomach via nasogastric tube, within two minutes, baseline 1.2±0.1): 4.8
gastric juice pH, range after administration (gastric juice pH [3]; 50 ml of 0.3 M via nasogastric tube, within two minutes): 6.7-7.0
time gastric juice pH maintained above 6 (gastric juice pH [3]; 50 ml of 0.3 M): at least 2 hours
gastric juice pH maintained after administration (gastric juice pH [3]; 50 ml of 0.3 M, for at least 2 hours): above 6

SMILES: Cl.Cl.NCCc1ccn[nH]1 [betazole hydrocholoride]
side effects ([4]; orally administered): few side effects

SMILES: NCCc1c[nH]cn1 [histamine]
side effects ([4]; large doses): severe hypotension

SMILES: CSCC[C@H](NC(=O)[C@H](Cc1c[nH]c2ccccc12)NC(=O)CCNC(=O)OC(C)(C)C)C(=O)N[C@@H](CC(=O)O)C(=O)N[C@@H](Cc1ccccc1)C(N)=O [pentagastrin]
half-life [5]: approximately 10 minutes
safety profile ([4]; in vivo): very good safety profile
side effects ([4]; intravenous 0.5 mcg/kg bolus over 30 seconds): abdominal fullness and an urge to defecate
side effects ([4]; intravenous administration): transient mild side effects, e.g., anxiety, palpitations

volume of gastric juice (pH 1.0) neutralized [6]: 50 ml
SMILES: O=C([O-])O.[Na+] [sodium bicarbonate]
